Data: publication PMC10786269 (Proceedings of the National Academy of Sciences of the …, 2024)
pKd: −log10 of the molar value. Counter-ions that a name gives are not always drawn.

Tests used:
[1] = biological target: T1, Polyphosphate kinase-1 (PPK-1, Rv2984) (Mycobacterium tuberculosis, UniProt P9WHV9); assay: microscale thermophoresis; type: binding
T1 sequence (P9WHV9 1-742): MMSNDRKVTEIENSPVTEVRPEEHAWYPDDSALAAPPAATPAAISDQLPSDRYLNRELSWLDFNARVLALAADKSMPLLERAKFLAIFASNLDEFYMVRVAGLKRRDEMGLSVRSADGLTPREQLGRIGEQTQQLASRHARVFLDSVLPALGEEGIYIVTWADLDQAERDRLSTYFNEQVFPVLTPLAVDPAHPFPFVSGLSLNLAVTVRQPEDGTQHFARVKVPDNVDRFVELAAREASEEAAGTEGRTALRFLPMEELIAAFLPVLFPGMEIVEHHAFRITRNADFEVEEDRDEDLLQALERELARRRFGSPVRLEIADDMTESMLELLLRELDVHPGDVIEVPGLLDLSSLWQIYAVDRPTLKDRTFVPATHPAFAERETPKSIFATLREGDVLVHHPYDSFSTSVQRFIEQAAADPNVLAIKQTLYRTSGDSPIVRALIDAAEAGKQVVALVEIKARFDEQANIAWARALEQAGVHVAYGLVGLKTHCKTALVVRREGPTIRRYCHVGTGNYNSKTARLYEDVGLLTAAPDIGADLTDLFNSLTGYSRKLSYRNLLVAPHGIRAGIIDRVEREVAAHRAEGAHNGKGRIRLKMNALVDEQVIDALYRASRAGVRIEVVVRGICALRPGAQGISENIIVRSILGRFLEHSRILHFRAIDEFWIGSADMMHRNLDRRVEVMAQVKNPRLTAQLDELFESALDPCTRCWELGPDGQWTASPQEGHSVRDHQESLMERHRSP

[2] = biological target: T1, Polyphosphate kinase-1 (PPK-1, Rv2984); type: biochemical

SMILES | pKd [1] | inhibition of PPK-1 ATP and polyP synthesis (SI Appendix Fig. S6 A-C) [2]
O=C(c1ccc(OCCN2CCCCC2)cc1)c1c(-c2ccc(O)cc2)sc2cc(O)ccc12 [Cpd-11, raloxifene hydrochloride] | 4.40 | 
O=C1OC2(c3ccccc31)c1ccc(O)c(O)c1Oc1c2ccc(O)c1O [gallein] |  | gallein inhibited both ATP and polyP synthesis activity associated with the PPK-1 homolog from M. tuberculosis
